Assay [1] relates to circadian rhythms. As to conditions: cellular reporter assays; cited from earlier work. On the technique in general: A reporter such as luciferase makes a cellular process visible.
Assay [2] concerns circadian rhythms. As to conditions: in vivo locomotor activity of a variety of species; cited from earlier work.
For assay [3] the following is noted: including conditioned place preference with cocaine and alcohol reinstatement; cited from earlier work.
The conditions of assay [4]: ob/ob and diet-induced obese mouse, daily administration; cited from earlier work.
Assay [5] deals with T1, human recombinant GST cleaved CSNK1D (Homo sapiens, UniProt P48730).
T1 construct: GST (cleaved yes); purchased University of Dundee clone DU 19064
T1 sequence (P48730 whole entry): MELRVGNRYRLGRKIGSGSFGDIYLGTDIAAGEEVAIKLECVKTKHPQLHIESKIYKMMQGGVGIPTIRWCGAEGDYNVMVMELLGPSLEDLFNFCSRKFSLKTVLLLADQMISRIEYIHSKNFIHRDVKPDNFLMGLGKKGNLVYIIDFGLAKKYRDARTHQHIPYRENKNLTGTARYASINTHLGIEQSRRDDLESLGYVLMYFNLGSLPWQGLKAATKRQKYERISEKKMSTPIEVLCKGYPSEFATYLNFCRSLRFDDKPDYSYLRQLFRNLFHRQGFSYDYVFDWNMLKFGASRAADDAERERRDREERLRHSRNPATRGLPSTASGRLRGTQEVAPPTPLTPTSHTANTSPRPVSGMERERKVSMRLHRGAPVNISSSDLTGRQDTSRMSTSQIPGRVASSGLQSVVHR
Description: Purified Enzyme Assay (ADP-Glo CSNK1D Kinase Assay). It counts as biochemical. The conditions noted are these: 2 nM CSNK1D; peptide substrate 150 μM; ATP 20 μM; 45 minutes at room temperature. A digest of the protocol:
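Percent activity derived from ADP-Glo quantification of ADP produced. Reactions: compound dose-response with human recombinant GST-cleaved CSNK1D, ATP and substrate peptide PLSRTL-pS-VASLPGL, incubated 45 min at room temperature.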

In another assay the target is T2, human CSNK1D (Homo sapiens, UniProt P48730).
T2 construct: expressed in transfected cells
T2 sequence (P48730 whole entry): as above
The experiment in a line: Whole Cell nBRET CSNK1D Binding Assay. As to conditions: living CHO cells stably expressing human CSNK1D tagged with nanoluciferase; NanoBret tracer 130 nM; 2 hours at 37 C.

Like-named read-outs stand apart in the source and are kept apart here.

In the case of `Nc1nccc(-c2c(-c3ccc(F)cc3)ncn2C2CCCCC2)n1` [PF-670462], the “effect on circadian rhythms” value in the assay with circadian rhythms [1] and with circadian rhythms [2] was “significantly lengthened circadian rhythms” in each case. Further, in assay [3], the “efficacy in addiction/substance abuse models” value is reported as “shown efficacy”.

`Nc1nccc(-c2c(-c3ccc(F)cc3)ncn2C2CCN(Cc3ccon3)CC2)n1` [PF-5006739]: the glucose tolerance entry in assay [4] was “improve glucose tolerance”. Further, the “effect on circadian rhythms” value with circadian rhythms [1] and in the assay with circadian rhythms [2] was “significantly lengthened circadian rhythms” in each case.

The term IC50 denotes the midpoint of a concentration-inhibition curve. Consider `C[C@@H]1Cn2nc(-c3ccc(F)cn3)c(-c3ccnc4[nH]ncc34)c2CO1` (single isomer, unassigned) [Example 85, (*R)-2-(5-Fluoro-2-pyridyl)-6-methyl-3-(1H-pyrazolo[3,4-b]pyridin-4-yl)-6,7-dihydro-4H-pyrazolo[5,1-c][1,4]oxazine], for which the concentration for half-maximal inhibition (IC50) in assay [5] turned out to be 22 nM; on human CSNK1D, 371 nM.

Turning to `CC1(C)Cc2c(-c3ccnc4[nH]ncc34)c(-c3ccc(F)cc3)nn2C1` [Example 231, 4-[2-(4-Fluorophenyl)-5,5-dimethyl-4,6-dihydropyrrolo[1,2-b]pyrazol-3-yl]-1H-pyrazolo[3,4-b]pyridine], the IC50 in assay [5] came to 1 nM; on human CSNK1D, 4 nM.

For `CC1(CF)CCc2c(-c3ccnc(N)c3)c(-c3ccc(F)cn3)nn2C1` (single isomer, unassigned) [Example 287, (*R)-4-[6-(Fluoromethyl)-2-(5-fluoro-2-pyridyl)-6-methyl-5,7-dihydro-4H-pyrazolo[1,5-a]pyridin-3-yl]pyridin-2-amine], the IC50 in assay [5] was 5 nM; at human CSNK1D, 68 nM.

On to `C[C@@]1(CF)CCc2c(-c3ccnc4[nH]nc(Cl)c34)c(-c3ccc(F)cn3)nn2C1` (single isomer, unassigned) [Example 291, (*R)-3-Chloro-4-(6-(fluoromethyl)-2-(5-fluoropyridin-2-yl)-6-methyl-4,5,6,7-tetrahydropyrazolo[1,5-a]pyridin-3-yl)-1H-pyrazolo[3,4-b]pyridine], for which the results for the half-maximal inhibitory concentration (IC50) (in assay [5]; on human CSNK1D) were 5 nM and 6 nM, respectively.

For `Cc1cc(-c2c(-c3ccc(F)cn3)nn3c2O[C@@H](C)C[C@@H]3C)c2cn[nH]c2n1` (single isomer, unassigned) [Example 209, (5*S,7*S)-2-(5-Fluoro-2-pyridyl)-5,7-dimethyl-3-(6-methyl-1H-pyrazolo[3,4-b]pyridin-4-yl)-6,7-dihydro-5H-pyrazolo[5,1-b][1,3]oxazine], the values for the IC50 (in assay [5]; at human CSNK1D) were 8 nM and 165 nM, respectively.

For the compound `Cc1nc2[nH]nc(C)c2c(-c2c(-c3ccc(F)cn3)nn3c2C[C@@H]2C[C@@H]23)c1F` [Example 274, (4aS,5aS)-3-(5-Fluoro-3,6-dimethyl-1H-pyrazolo[3,4-b]pyridin-4-yl)-2-(5-fluoropyridin-2-yl)-4,4a,5,5a-tetrahydrocyclopropa[4,5]pyrrolo[1,2-b]pyrazole], the values for the concentration for half-maximal inhibition (IC50) (in assay [5]; at human CSNK1D) were 5 nM and 56 nM, respectively.

On to `[2H]C([2H])([2H])C1(C([2H])([2H])[2H])Cn2nc(-c3ccc(F)cn3)c(-c3c(F)c(C)nc4[nH]nc(C)c34)c2CO1` [Example 409, 3-(5-Fluoro-3,6-dimethyl-1H-pyrazolo[3,4-b]pyridin-4-yl)-2-(5-fluoropyridin-2-yl)-6,6-bis(methyl-d3)-6,7-dihydro-4H-pyrazolo[5,1-c][1,4]oxazine], for which the IC50 in assay [5] came to 12 nM; on human CSNK1D, 69 nM.

With `Fc1ccc(-c2nn3c(c2-c2ccnc4[nH]ncc24)[C@@H]2CC[C@H]3C2)nc1` (single isomer, unassigned) [Example 62, (4*R,7*S)-2-(5-Fluoropyridin-2-yl)-3-(1H-pyrazolo[3,4-b]pyridin-4-yl)-4,5,6,7-tetrahydro-4,7-methanopyrazolo[1,5-a]pyridine], the IC50 in assay [5] was found to be 6 nM; on human CSNK1D, 55 nM.

`COC[C@]1(F)CCc2c(-c3ccnc4[nH]ncc34)c(-c3ccc(F)cn3)nn2C1` (single isomer, unassigned) [Example 300, (*S)-4-[6-Fluoro-2-(5-fluoro-2-pyridyl)-6-(methoxymethyl)-5,7-dihydro-4H-pyrazolo[1,5-a]pyridin-3-yl]-1H-pyrazolo[3,4-b]pyridine]: the 50% inhibitory concentration (IC50) was 75 nM in assay [5] and 1910 nM at human CSNK1D.

Turning to `[2H]C([2H])([2H])[C@@]1(C(F)(F)F)Cn2nc(-c3ccc(F)cn3)c(-c3ccnc4[nH]nc(Cl)c34)c2CO1` (single isomer, unassigned) [Example 427, (*S)-3-(3-Chloro-1H-pyrazolo[3,4-b]pyridin-4-yl)-2-(5-fluoropyridin-2-yl)-6-(methyl-d3)-6-(trifluoromethyl)-6,7-dihydro-4H-pyrazolo[5,1-c][1,4]oxazine], the IC50 was 4 nM in assay [5] and 19 nM at human CSNK1D.

Source of the values: patent US20230339970A1, “CASEIN KINASE 1 DELTA MODULATORS” (priority 2020, published 2023).
